Source: paper PMC13110364, “Design, Synthesis, and Biological Evaluation of Novel Triazine‐Based Dual Histone Deacetylase/phosphatidylinositol 3‐kinase Inhibitors for Breast Cancer Therapy” (Chemmedchem, 2026)

What was measured:
[1] = system: JIMT1 breast cancer cells; assay: MTS cell viability assay, JIMT1; format: cell-based; settings: Homo sapiens, JIMT-1, 72 h treatment
Experimental: (§1) The cell viability effects of compounds 5a–5f were assessed in LY2, JIMT1, and MDA‐MB‐231 breast cancer cell lines using the 3‐(4,5‐dimethylthiazol‐2‐yl)‐5‐(3‐carboxymethoxyphenyl)‐2‐(4‐sulfophenyl)‐2H‐tetrazolium (MTS) assay. The MTS assay measures metabolic viability and serves as a first‐pass screen.
(§2) JIMT‐1 (DSMZ ACC 589) and MDA‐MB‐231 (ATCC HTB‐26) breast cancer cell lines were maintained in Dulbecco's Modified Eagle Medium (DMEM) High Glucose with L‐glutamine (D5796, Sigma) supplemented with 10% fetal calf serum. MCF7‐derivative LY2 breast cancer cells were previously described (REF: PMID: 33420368). LY2 cells were cultured in phenol red‐free MEM (PRF‐MEM; 51 200‐046, Gibco) supplemented with 10% charcoal dextran‐stripped fetal calf serum (CDS‐FCS; F6765, Merck), 2 mmol/L L‐glutamine (G7513, Merck), and 10^−8 mol/L 4‐hydroxytamoxifen (4‐OHT; H7904, Merck). All cell lines were maintained at 37°C in a humidified incubator with 5% CO2 and regularly authenticated and tested for mycoplasma.
(§3) Cell viability was evaluated in response to increasing concentrations of 5a‐5f (0.3, 1, 3, 10, and 30 μM) or vehicle control (0.1% DMSO). LY2, JIMT1, and MDA‐MB‐231 cells were seeded at a density of 2,500 cells per well in 96‐well plates with a total volume of 100 μL per well. Prior to treatment, cells were serum‐deprived for 24 h. Following serum depletion, cells were treated in complete growth medium for 72 h. Cell viability was assessed using the MTS assay (G1111, Promega) according to the manufacturer's instructions. Absorbance was measured at 495 nm using a BioTek Synergy HTX Multi‐Mode Microplate Reader (Agilent). Results were normalized to the vehicle control (DMSO), and the half‐maximal inhibitory concentration (IC50) of the inhibitors was determined by nonlinear regression (curve fit) using a four‐parameter variable slope model.

[2] = system: MDA‐MB‐231 triple‐negative breast cancer cell line; assay: MTS cell viability assay, MDA-MB-231; format: cell-based; settings: Homo sapiens, MDA-MB-231, 72 h, MDA‐MB‐231 cells, 72 h treatment
Experimental: as §1, §2, §3

LY2 breast cancer cells = assay: MTS cell viability assay, LY2; format: cell-based; settings: 72 h treatment
Experimental: as §1, §2, §3

MCF‐10A cells = assay: Cell viability in nontransformed cell line MCF-10A; format: cell-based; settings: Homo sapiens
From the text: Thus, further optimization will be required to improve the therapeutic index.
FIGURE 5 Dose‐dependent effects of compound treatment (5b and 5f) on nontransformed breast cell viability across MCF‐10A.

HDAC9 = system: HDAC9; design: method as in PMID 22693356; settings: cited from earlier work
HDAC2 = system: HDAC2; design: method as in PMID 22693356; settings: cited from earlier work
HDAC5 = system: HDAC5; design: method as in PMID 22693356; settings: cited from earlier work
PI3Kα = PI3Kα (Homo sapiens, UniProt P42336); design: method as in earlier work; settings: cited from earlier work
HDAC = system: HDAC; design: method as in earlier work; settings: cited from earlier work
HDAC4 = HDAC4 (Homo sapiens, UniProt P56524); design: method as in PMID 32022441; settings: cited from earlier work
HDAC1 = HDAC1 (Homo sapiens, UniProt Q13547); design: method as in PMID 32022441; settings: cited from earlier work
[3] = design: method as in PMID 32022441; settings: previous studies of the authors ref 25; cited from earlier work

Sequence of HDAC4 (P56524 whole entry): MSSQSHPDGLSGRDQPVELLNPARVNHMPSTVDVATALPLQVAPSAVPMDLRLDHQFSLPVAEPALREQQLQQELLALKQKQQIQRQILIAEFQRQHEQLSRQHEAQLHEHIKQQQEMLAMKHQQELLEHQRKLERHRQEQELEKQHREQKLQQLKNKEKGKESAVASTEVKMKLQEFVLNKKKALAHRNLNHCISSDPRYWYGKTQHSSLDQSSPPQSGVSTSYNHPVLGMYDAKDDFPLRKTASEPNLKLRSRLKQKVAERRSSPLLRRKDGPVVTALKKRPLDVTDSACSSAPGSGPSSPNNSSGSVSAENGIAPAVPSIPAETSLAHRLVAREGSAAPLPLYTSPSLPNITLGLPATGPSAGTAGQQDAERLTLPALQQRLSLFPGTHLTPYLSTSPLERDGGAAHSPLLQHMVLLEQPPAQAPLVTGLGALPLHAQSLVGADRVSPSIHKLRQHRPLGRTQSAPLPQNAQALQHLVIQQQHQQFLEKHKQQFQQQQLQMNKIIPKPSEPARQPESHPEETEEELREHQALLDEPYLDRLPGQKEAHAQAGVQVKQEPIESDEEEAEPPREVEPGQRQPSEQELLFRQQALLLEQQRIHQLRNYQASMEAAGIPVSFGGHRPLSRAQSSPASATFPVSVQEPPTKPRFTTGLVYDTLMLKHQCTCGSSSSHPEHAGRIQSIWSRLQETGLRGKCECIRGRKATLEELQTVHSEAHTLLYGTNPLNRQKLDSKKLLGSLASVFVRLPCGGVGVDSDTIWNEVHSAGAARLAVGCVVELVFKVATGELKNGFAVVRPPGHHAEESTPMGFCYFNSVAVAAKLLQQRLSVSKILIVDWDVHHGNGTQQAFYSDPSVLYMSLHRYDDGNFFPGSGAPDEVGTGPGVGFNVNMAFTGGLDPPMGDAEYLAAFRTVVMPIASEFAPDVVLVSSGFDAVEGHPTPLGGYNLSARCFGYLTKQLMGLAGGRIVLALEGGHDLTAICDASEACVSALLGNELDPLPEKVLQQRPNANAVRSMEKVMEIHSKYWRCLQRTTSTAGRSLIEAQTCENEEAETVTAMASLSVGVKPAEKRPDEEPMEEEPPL
Sequence of PI3Kα (P42336 whole entry): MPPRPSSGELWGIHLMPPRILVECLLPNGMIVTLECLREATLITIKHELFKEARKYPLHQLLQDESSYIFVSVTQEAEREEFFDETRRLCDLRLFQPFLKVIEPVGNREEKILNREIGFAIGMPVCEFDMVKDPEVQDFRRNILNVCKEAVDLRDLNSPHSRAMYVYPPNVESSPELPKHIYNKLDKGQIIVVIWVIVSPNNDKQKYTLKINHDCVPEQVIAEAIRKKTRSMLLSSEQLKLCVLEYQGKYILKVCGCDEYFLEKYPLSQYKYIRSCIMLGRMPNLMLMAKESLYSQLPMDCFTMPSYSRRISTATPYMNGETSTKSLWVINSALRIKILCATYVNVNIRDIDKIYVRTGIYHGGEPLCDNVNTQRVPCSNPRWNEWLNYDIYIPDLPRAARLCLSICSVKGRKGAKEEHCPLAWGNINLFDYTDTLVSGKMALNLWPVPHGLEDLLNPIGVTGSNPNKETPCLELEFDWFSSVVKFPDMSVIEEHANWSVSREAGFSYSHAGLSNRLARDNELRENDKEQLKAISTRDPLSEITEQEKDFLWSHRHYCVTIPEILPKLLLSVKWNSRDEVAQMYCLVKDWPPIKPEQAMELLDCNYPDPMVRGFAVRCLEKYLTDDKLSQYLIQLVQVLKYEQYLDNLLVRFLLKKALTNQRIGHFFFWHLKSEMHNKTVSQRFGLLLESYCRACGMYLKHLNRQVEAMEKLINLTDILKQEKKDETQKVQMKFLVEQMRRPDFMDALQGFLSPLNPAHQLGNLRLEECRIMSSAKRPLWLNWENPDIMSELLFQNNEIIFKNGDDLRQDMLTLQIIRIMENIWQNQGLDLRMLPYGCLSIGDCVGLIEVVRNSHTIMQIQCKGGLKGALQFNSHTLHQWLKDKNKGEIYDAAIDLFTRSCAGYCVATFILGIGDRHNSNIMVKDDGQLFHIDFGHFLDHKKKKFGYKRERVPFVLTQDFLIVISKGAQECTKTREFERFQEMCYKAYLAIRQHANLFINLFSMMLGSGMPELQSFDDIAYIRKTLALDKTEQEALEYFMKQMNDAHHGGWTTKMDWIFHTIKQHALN
Sequence of PI3Kα (P27986 whole entry partner): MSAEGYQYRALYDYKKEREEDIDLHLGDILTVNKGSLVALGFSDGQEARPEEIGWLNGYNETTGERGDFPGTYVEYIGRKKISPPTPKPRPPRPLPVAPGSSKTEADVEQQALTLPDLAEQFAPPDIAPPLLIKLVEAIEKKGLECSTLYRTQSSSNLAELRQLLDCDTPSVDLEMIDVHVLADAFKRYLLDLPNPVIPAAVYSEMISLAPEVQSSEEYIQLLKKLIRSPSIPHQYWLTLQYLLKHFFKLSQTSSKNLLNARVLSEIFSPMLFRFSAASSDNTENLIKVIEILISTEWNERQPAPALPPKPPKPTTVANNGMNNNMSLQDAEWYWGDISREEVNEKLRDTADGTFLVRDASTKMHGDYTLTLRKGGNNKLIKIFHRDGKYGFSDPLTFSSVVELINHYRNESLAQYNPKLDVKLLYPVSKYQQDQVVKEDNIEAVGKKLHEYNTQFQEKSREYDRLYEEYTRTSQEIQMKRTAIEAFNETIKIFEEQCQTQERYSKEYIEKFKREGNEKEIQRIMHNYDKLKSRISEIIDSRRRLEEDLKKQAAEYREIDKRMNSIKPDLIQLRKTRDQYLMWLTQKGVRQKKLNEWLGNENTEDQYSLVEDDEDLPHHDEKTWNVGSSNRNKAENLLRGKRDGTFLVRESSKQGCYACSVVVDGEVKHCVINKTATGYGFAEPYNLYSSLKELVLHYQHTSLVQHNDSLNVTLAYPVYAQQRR
Sequence of HDAC1 (Q13547 whole entry): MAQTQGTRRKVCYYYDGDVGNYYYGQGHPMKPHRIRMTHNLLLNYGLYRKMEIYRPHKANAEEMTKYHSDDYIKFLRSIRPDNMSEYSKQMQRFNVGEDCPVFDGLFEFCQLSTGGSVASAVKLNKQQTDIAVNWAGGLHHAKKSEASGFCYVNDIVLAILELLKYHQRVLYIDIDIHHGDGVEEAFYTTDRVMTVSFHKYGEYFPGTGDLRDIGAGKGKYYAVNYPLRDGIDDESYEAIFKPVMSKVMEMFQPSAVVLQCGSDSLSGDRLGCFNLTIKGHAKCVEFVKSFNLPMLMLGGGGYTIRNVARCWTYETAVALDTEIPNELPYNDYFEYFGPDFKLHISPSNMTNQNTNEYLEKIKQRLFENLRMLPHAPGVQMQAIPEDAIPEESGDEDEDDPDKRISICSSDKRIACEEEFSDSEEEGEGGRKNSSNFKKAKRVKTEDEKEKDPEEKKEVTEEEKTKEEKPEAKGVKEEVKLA

Structure (SMILES) | IC50 [1] | IC50 [2] | IC50 (LY2 breast cancer cells) | further results
O=C(NO)c1ccc(CNc2nc(-c3cccnc3)nc(N3CCOCC3)n2)cc1 [Compound 5c, N‐Hydroxy‐4‐(((4‐Morpholino‐6‐(pyridin‐3‐yl)−1,3,5‐Triazin‐2‐yl)Amino)Methyl)Benzamide] | 10.5 µM | 9.43 µM | 10 µM | 
Nc1ncc(-c2nc(NCc3ccc(C(=O)NO)cc3)nc(N3CCOCC3)n2)cn1 [Compound 5e, 4‐(((4‐(2‐Aminopyrimidin‐5‐yl)‐6‐Morpholino‐1,3,5‐Triazin‐2‐yl)Amino)Methyl)‐N‐Hydroxybenzamide] | 15.6 ± 6.48 µM | 10.4 µM | 8.84 ± 3.47 µM | 
CNc1ccc(-c2nc(N3CCOCC3)c3sc(CN(C)c4ncc(C(=O)NO)cn4)cc3n2)cn1 [Ifupinostat, ifupinostat] |  |  |  | IC50 (PI3Kα): < 0.1 µM; IC50 (HDAC): 0.1 to 1 µM
O=C(NO)c1ccc(/C=N/NC(=O)c2cc(N3CCOCC3)nc(-c3cccc(O)c3)n2)cc1 [LASSBio-2208] |  |  |  | IC50 (HDAC4): > 3 µM; IC50 (HDAC1): > 3 µM; stability of the NAH motif [3]: acid‐labile

More lines, in order of falling IC50 [1], values ahead:

IC50 [1] | IC50 [2] | IC50 (LY2 breast cancer cells) | Structure (SMILES) | further results
8.97 ± 2.64 µM | 13.1 ± 6.08 µM | 10.3 ± 3 µM | Nc1ccc(-c2nc(NCc3ccc(C(=O)NO)cc3)nc(N3CCOCC3)n2)cn1 [Compound 5d, 4‐(((4‐(6‐Aminopyridin‐3‐yl)‐6‐Morpholino‐1,3,5‐Triazin‐2‐yl)Amino)Methyl)‐N‐Hydroxybenzamide] | 
8.58 ± 0.14 µM | 5.8 ± 0.6 µM | 10.9 µM | O=C(NO)c1ccc(CNc2nc(-c3ccccc3)nc(N3CCOCC3)n2)cc1 [Compound 5a, N‐Hydroxy‐4‐(((4‐Morpholino‐6‐Phenyl‐1,3,5‐Triazin‐2‐yl)Amino)Methyl)Benzamide] | 
